# In paper PMC7395068, “The evolution of strategies to minimise the risk of human drug-induced liver injury (DILI) in drug discovery and development” (Archives of Toxicology, 2020):
# Where two headings read alike, the source gives them in different places.
# What was measured:
# [1] = cited from earlier work
# [2] = test system: primary human hepatocytes, NIH3T3 fibroblasts, BSEP, CYP3A4; conditions: cited from earlier work; for Cellular toxicity (3T3 cells) / Combined Assay / GSH adduct HML / Hepatocyte cellular toxicity / MitoTox 3T3 / TDI CYP3A4 / hBSEP inhibition: In vitro Assay, ref Schadt 2015
# RMPCC's = conditions: cited from earlier work
# human hepatocytes = conditions: In vitro Assay; ref Xu 2008; cited from earlier work
# hu-MPCC = conditions: cited from earlier work
# [3] = cited from earlier work; remark: listed apart in the source
# HepG2 cells [4] = conditions: In vitro Assay; ref O'Brien 2006; cited from earlier work
# [5] = ref Chen 2011; cited from earlier work
# [6] = test system: THLE-Null and THLE-3A4 cells; conditions: In vitro Assay; ref Gustafsson 2014; cited from earlier work
# PHH [7] = conditions: cited from earlier work
# [8] = test system: HepG2 C3A spheroid, BSEP, Glu/Gal in HepG2 cells, bioactivation; conditions: cited from earlier work
# HepaRG spheroids = assay: Combined HCI (HCS) and cellular ATP 3D assay in HepaRG spheroids; conditions: for AC50 / minimal effective concentration: Homo sapiens
# [9] = test system: HepG2 cells, primary human hepatocytes; conditions: In vitro Assay; ref Garside 2014; cited from earlier work
# [10] = read-out: Human plasma Cmax; total plasma Cmax.tot, median of 9 literature references; cited from earlier work
# [11] = test system: THLE or HepG2 cells, isolated mitochondria, BSEP; conditions: cited from earlier work
# hLiMTs [12] = conditions: cited from earlier work
# [13] = test system: isolated mouse liver mitochondria; conditions: cited from earlier work
# [14] = plasma free fraction; cited from earlier work
# [15] = Plasma free fraction (fu) and unbound Cmax (Cmax,u); assay type: in vitro ADME, human; conditions: unbound plasma Cmax
# Description: The prediction of DILI severity was evaluated further using the 3D combined HCI assays using plasma-free fraction. The majority of fu values were obtained from literature, when unavailable in-house prediction was utilised. Unbound plasma Cmax concentrations (Cmax,u) were derived by multiplying total plasma Cmax with the corresponding free fraction (fu) for each compound.
# PHH [16] = conditions: In vitro Assay; ref Albrecht 2019; cited from earlier work
# HepG2 cells [17] = conditions: cited from earlier work
# HepG2 = test system: HepG2; design: method as in Albrecht 2019; conditions: In vitro Assay; ref Albrecht 2019; cited from earlier work
# rBsep = conditions: In vitro Assay; ref Dawson 2012; cited from earlier work
# hLiMTs [18] = assay: Combined HCI (HCS) and cellular ATP 3D assay in hLiMTs; conditions: for AC50 / minimal effective concentration: Homo sapiens
# HepG2 cells [19] = conditions: In vitro Assay; ref Persson 2013; cited from earlier work
# [20] = In vitro Assay, ref Khetani 2012
# [21] = In vitro Assay, ref Proctor 2017
# [22] = Microtissue model structural based (HCI), combined HCS and ATP, MEC < 25 × Cmax.tot cut-off
# [23] = Modeled in vitro assays (cytotoxicity, mitochondrial dysfunction, BSEP), ref Aleo et al. 2019
# [24] = In vitro Assay, ref Porceddu 2012
structure (smiles),measurement,setting,value
CC(=O)Oc1ccccc1C(=O)O [aspirin],"DILI +VE (5-8), DILI -VE (-4)",[1]; ref Chen 2016,+VE
same,DILI severity category,[1]; ref Chen 2016,vLess-DILI-Concern
same,Cellular toxicity (3T3 cells),[2],-VE
same,Combined Assay,[2],-VE
same,GSH adduct HML,[2],-VE
same,Hepatocyte cellular toxicity,[2],-VE
same,MitoTox 3T3,[2],-VE
same,TDI CYP3A4,[2],-VE
same,hBSEP inhibition,[2],-VE
same,RMPCC's,RMPCC's; [20],-VE
same,Structural based (HCI),human hepatocytes,-VE
same,HMPCC's,hu-MPCC; [20],-VE
same,In vivo DILI,[3]; ref Khetani 2012,-VE
same,In vivo DILI,[3]; ref O'Brien 2006,+VE
same,In vivo DILI,[3]; ref Schadt 2015,-VE
same,In vivo DILI,[3]; ref Xu 2008,-VE
same,Structural based (HCI),HepG2 cells [4],+VE
"NC(=O)N1c2ccccc2C=Cc2ccccc21 [carbamazepine, reference compound]",DILI Score (FDA) (1-8),[5],7
same,THLE-Null,[6],-VE
same,THLE-Null/3A4,[6],-VE
same,"PHH/100xCmax, Proctor (2017)","PHH [7]; 2D PHH, ATP, IC50 < 100 × Cmax.tot, ref Proctor et al. 2017",-VE
same,"PHH/100uM, Proctor (2017)","PHH [7]; 2D PHH, ATP, IC50 threshold 100 µM, ref Proctor et al. 2017",-VE
same,PHH ATP <100uM,PHH [7]; [21],-VE
same,DILI severity category (Chen et al. [2016]),"[1]; LTKB DILIrank category, ref Chen et al. 2016",Most
same,DILI severity category (Chen 2016),"[1]; human DILI classification, LTKB DILIrank, ref Chen et al. 2016",Most
same,DILI severity category,"[1]; human DILI severity, ref Chen et al.",Most
same,"DILI +VE (5-8), DILI -VE (-4)",[1]; ref Chen 2016,+VE
same,DILI severity category,[1]; ref Chen 2016,vMost-DILI-Concern
same,"DILI in vitro assay prediction, Schadt (2015)","[2]; BSEP & Metabolism based, ref Schadt et al. 2015",+VE
same,Cellular toxicity (3T3 cells),[2],-VE
same,Combined Assay,[2],+VE
same,GSH adduct HML,[2],+VE
same,Hepatocyte cellular toxicity,[2],-VE
same,MitoTox 3T3,[2],-VE
same,TDI CYP3A4,[2],-VE
same,hBSEP inhibition,[2],-VE
same,"Bayesian Machine Learning DILI prediction, Williams (2019)","[8]; Bayesian modeling, ref Williams et al. 2019",+VE
same,Bayesian Machine Learning,"[8]; In vitro Assay, ref Williams 2019",+VE
same,HepaRG <25x Avg Cmax ATP,"HepaRG spheroids; HepaRG, ATP endpoint, cut-off <25x Avg Cmax",+ve
same,HepaRG <100x Avg Cmaxu ATP,"HepaRG spheroids; HepaRG, ATP endpoint, cut-off <100x Avg Cmaxu",+ve (<100x Avg Cmaxu)
same,HepaRG <25x Avg Cmax HCS,"HepaRG spheroids; HepaRG, HCS endpoints, cut-off <25x Avg Cmax",+ve
same,HepaRG <100x Avg Cmaxu HCS,"HepaRG spheroids; HepaRG, HCS endpoints, cut-off <100x Avg Cmaxu",+ve (<100x Avg Cmaxu)
same,HepaRG <25x Avg Cmax All,"HepaRG spheroids; HepaRG, all endpoints (ATP and HCS), cut-off <25x Avg Cmax",+ve
same,HepaRG Cmax max All,"HepaRG spheroids; HepaRG, all endpoints, Cmax max used",+ve
same,HepaRG Cmax min All,"HepaRG spheroids; HepaRG, all endpoints, Cmax min used",+ve
same,HepaRG <10 uM All,"HepaRG spheroids; HepaRG, all endpoints, cut-off <10 uM",-ve
same,HepaRG <100x Avg Cmaxu All,"HepaRG spheroids; HepaRG, all endpoints, cut-off <100x Avg Cmaxu",+ve (<100x Avg Cmaxu)
same,AC50,"HepaRG spheroids; HepaRG, read-out: ATP endpoint AC50",159 µM
same,minimal effective concentration,"HepaRG spheroids; HepaRG, read-out: ATP endpoint MEC",81.5 µM
same,AC50,"HepaRG spheroids; HepaRG, read-out: HCS endpoint AC50",343 µM
same,minimal effective concentration,"HepaRG spheroids; HepaRG, read-out: HCS endpoint MEC",172 µM
same,DILI prediction HepaRG spheroids (HCS-MEC),HepaRG spheroids; [22],+VE (MEC < 25 × Cmax.tot cut-off)
same,Cluster 1-6 +VE Assay,[9],-VE
same,Cmax,[10],50.8 µM
same,Partition Hybrid HRM Score,"[11]; In vitro Assay, ref Aleo 2019",+VE
same,Ro2 Hybrid HRM Score,"[11]; In vitro Assay, ref Aleo 2019",+VE
same,"Partition Hybrid HRM Score ≥4, Aleo (2019)",[11]; [23],+VE (Partition Hybrid HRM Score ≥4)
same,"Partition Hybrid HRM Score ≥8, Aleo (2019)",[11]; [23],-VE
same,"Rule of Two hybrid HRM Score ≥3, Aleo (2019)",[11]; [23],+VE (Rule of Two hybrid HRM Score ≥3)
same,"Rule of Two hybrid HRM Score ≥8, Aleo (2019)",[11]; [23],-VE
same,hLiMTs ATP <100uM,hLiMTs [12]; [21],-VE
same,"hLiMTs/100xCmax, Proctor (2017)","hLiMTs [12]; hLiMTs, ATP, IC50 < 100 × Cmax.tot, ref Proctor et al. 2017",+VE (IC50 < 100 × Cmax.tot)
same,"hLiMTs/100uM, Proctor (2017)","hLiMTs [12]; hLiMTs, ATP, IC50 threshold 100 µM, ref Proctor et al. 2017",-VE
same,in vitro data EC2<=1x Cmax,[13]; [24],+VE
same,in vitro data EC20<=2uM,[13]; [24],+VE
same,fu,[14],0.240
same,Assigned DILI category,"[3]; Chen et al. 2016 or literature alignment, ref Chen et al. 2016",3
same,In vivo DILI,[3]; […],+VE
same,In vivo DILI,[3]; ref Albrecht 2019,+VE
same,In vivo DILI,[3]; ref Aleo 2019,+VE
same,In vivo DILI,[3]; ref Dawson 2012,+VE
same,In vivo DILI,[3]; ref Garside 2014,+VE
same,In vivo DILI,[3]; ref Gustafsson 2014,+VE
same,In vivo DILI,[3]; ref Porceddu 2012,+VE
same,In vivo DILI,[3]; ref Proctor 2017,+VE
same,In vivo DILI,[3]; ref Schadt 2015,+VE
same,In vivo DILI,[3]; ref Tolosa 2012,+VE
same,In vivo DILI,[3]; ref Williams 2019,+VE
same,"Human plasma Cmax,u",[15],12.190 µM
same,Cytotoxicity PHH 48 hrs,PHH [16],+VE
same,Structural based (HCI),"HepG2 cells [17]; In vitro Assay, ref Tolosa 2012",+VE
same,"DILI in vitro assay prediction, Tolosa (2012)","HepG2 cells [17]; Structural based (HCI), HepG2, ref Tolosa et al. 2012",+VE
same,Cytotoxicity HepG2 48 hrs,HepG2,+VE
same,Inhibition of rBsep cutoff<1& cmax u>.2,rBsep,-VE
same,Inhibition of rBsep cutoff<3,rBsep,-VE
same,AC50,hLiMTs [18]; read-out: ATP endpoint AC50,145 µM
same,minimal effective concentration,hLiMTs [18]; read-out: ATP endpoint MEC,73.6 µM
same,AC50,hLiMTs [18]; read-out: HCS endpoint AC50,226 µM
same,minimal effective concentration,hLiMTs [18]; read-out: HCS endpoint MEC,109 µM
same,DILI prediction hLiMTs (HCS-MEC),hLiMTs [18]; [22],+VE (MEC < 25 × Cmax.tot cut-off)
same,hLiMTs <25x Avg Cmax ATP,"hLiMTs [18]; hLiMTs, ATP endpoint, cut-off <25x Avg Cmax",+ve
same,hLiMTs <100x Avg Cmaxu ATP,"hLiMTs [18]; hLiMTs, ATP endpoint, cut-off <100x Avg Cmaxu",+ve (<100x Avg Cmaxu)
same,hLiMTs <25x Avg Cmax HCS,"hLiMTs [18]; hLiMTs, HCS endpoints, cut-off <25x Avg Cmax",+ve
same,hLiMTs <100x Avg Cmaxu HCS,"hLiMTs [18]; hLiMTs, HCS endpoints, cut-off <100x Avg Cmaxu",+ve (<100x Avg Cmaxu)
same,hLiMTs <25x Avg Cmax All,"hLiMTs [18]; hLiMTs, all endpoints (ATP and HCS), cut-off <25x Avg Cmax",+ve
same,hLiMTs Cmax max All,"hLiMTs [18]; hLiMTs, all endpoints, Cmax max used",+ve
same,hLiMTs Cmax min All,"hLiMTs [18]; hLiMTs, all endpoints, Cmax min used",+ve
same,hLiMTs <10 uM All,"hLiMTs [18]; hLiMTs, all endpoints, cut-off <10 uM",-ve
same,hLiMTs <100x Avg Cmaxu All,"hLiMTs [18]; hLiMTs, all endpoints, cut-off <100x Avg Cmaxu",+ve (<100x Avg Cmaxu)
O=C(O)c1cn(C2CC2)c2cc(N3CCNCC3)c(F)cc2c1=O [ciprofloxacin],RMPCC's,RMPCC's,+VE
same,HMPCC's,hu-MPCC,+VE
same,in vitro data EC20<=2uM,[13],-VE
CCN(CC)CC(=O)Nc1c(C)cccc1C [lidocaine],RMPCC's,RMPCC's; [20],+VE
same,HMPCC's,hu-MPCC; [20],+VE
same,Cluser analysis,HepG2 cells [19],-VE
same,Structural based (HCI),HepG2 cells [19],-VE
same,in vitro data EC20<=2uM,[13]; [24],+VE
same,Structural based (HCI),HepG2 cells [4],+VE
